According to US20250353891A1 (MEDIMMUNE LIMITED, priority 2022, published 2025):
Read-outs that look alike come from different tables or passages of the source. Starred links: 1 amine or outer side, 2 acyl side, 3 side chain; linkers in the order of their positions; H or OH if unused. Non-standard residues stand in square brackets, D forms with d. Residues, ends and D or L forms follow the SMILES beside them. Groups on a side chain read outwards from the residue. *: point of attachment. C18 diacid = O=C(O)CCCCCCCCCCCCCCCCC(=O)*; γGlu = O=C(O)[C@H](CCC(=O)[*:2])N[*:1]; Stearoyl = CCCCCCCCCCCCCCCCCC(=O)*; Palmitoyl = CCCCCCCCCCCCCCCC(=O)*; αMeF = C[C@](N)(Cc1ccccc1)C(=O)O; PEG2 = NCCOCCOCCC(=O)O; AEEA = NCCOCCOCC(=O)O; Aib = CC(C)(N)C(=O)O

Legend:
[1] = target: human GLP-1 receptor (hGLP-1R) (Homo sapiens, UniProt P43220); assay: cAMP production (HTRF) in CHO cells expressing hGLP-1R; assay type: cell-based; parameters: expressed in transfected cells; settings: for % Relative Potency Ratio: % GLP-1R activity relative to GLP-1 / % GlucR activity relative to glucagon; for EC50: Table 7, peptides modified at position 20, cAMP in CHO hGLP-1R cells, geometric mean, read-out: hGLP-1R EC50
human GLP-1 receptor (hGLP-1R), sequence (P43220 24-463): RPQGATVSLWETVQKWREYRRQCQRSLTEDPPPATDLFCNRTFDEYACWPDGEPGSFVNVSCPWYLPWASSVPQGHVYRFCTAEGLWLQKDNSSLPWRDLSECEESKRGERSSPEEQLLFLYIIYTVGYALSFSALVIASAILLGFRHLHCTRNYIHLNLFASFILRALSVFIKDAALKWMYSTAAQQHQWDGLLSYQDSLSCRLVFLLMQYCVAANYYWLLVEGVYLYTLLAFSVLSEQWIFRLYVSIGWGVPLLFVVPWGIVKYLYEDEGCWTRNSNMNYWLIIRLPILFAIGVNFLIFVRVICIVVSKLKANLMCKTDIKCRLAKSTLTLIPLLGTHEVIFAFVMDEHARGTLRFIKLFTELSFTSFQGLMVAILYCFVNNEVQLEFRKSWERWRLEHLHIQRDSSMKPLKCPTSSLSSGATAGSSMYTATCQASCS
Outline: (§1)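 Cells were resuspended in assay buffer at batch-optimized density, typically 1×10^5 cells/mL for hGLP-1R and 2×10^5 cells/mL for hGCGR. After 30 min incubation at room temperature with compound, cAMP was measured by two-step HTRF. EC50 values came from 4-parameter logistic fits of % Delta F.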

[2] = target: human glucagon receptor (hGCGR) (Homo sapiens, UniProt P47871); assay: cAMP production (HTRF) in CHO cells expressing hGCGR; assay type: cell-based; parameters: expressed in transfected cells; settings: cAMP in CHO hGCGR cells, geometric mean, read-out: hGluc-R EC50
human glucagon receptor (hGCGR), sequence (P47871 26-477): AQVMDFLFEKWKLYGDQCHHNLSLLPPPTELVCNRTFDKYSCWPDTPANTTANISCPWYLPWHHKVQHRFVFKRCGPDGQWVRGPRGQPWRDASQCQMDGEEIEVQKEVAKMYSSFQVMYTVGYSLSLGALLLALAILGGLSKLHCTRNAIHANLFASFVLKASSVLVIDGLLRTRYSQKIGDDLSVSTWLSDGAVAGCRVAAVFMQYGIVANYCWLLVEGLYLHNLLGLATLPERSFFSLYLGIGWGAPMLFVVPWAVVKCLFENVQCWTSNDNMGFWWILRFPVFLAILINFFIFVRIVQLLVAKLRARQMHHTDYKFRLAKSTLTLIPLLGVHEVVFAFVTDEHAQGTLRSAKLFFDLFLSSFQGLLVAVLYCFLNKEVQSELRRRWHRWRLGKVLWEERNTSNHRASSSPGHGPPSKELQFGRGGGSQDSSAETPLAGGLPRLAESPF
Outline: as §1

[3] = Mouse acute food intake study; assay type: in vivo; settings: male C57Bl/6 mice, s.c., cumulative food intake at 24 hr vs vehicle
Method: Male C57Bl/6 mice obtained from Jackson Laboratories or Charles River at 8-9 weeks of age and were housed one per cage in BioDaq (Research Diets) cages. Mice were placed on Alpha Dri bedding, standard chow diet (Envigo, 2018) and given water pouches. Mice were allowed to acclimate for 1-2 weeks. Body weight was measured to ensure appropriate acclimation. After acclimation, mice were sham dosed a minimum of 2 times prior to initiation of food intake study. On study day, mice were placed in clean cage bottoms, weighed, and fasted for 6-8 hours. Mice were sorted into groups based on average 24-hour food intake data and body weight. 1-2 hours prior to lights out, mice were dosed subcutaneously with one vehicle or test peptide dissolved in an appropriate vehicle at 5 mL/kg. Mice were left undisturbed and allowed access to food and water for 48 hours. Automated food intake was monitored in the BioDaq system was monitored during this time. Discrete food intake data was exported into MS Excel from which cumulative food intake data was generated and analyzed.

[4] = Table 6, peptides modified at position 17
[5] = Table 7, peptides modified at position 20

SMILES	% Relative Potency Ratio ([1]; Table 6)	EC50 [2, 4]	24 hr % Vehicle Food Intake ([3]; dose 10 nmol/kg)	EC50 [1]	% Relative Potency Ratio ([1]; Table 7)	EC50 [2, 5]	24 hr % Vehicle Food Intake ([3]; dose 3 nmol/kg)
CCCCCCCCCCCCCCCC(=O)N[C@@H](CCC(=O)N[C@@H](CCC(=O)NCCOCCOCCC(=O)NCCOCCOCCC(=O)NCCCC[C@H](NC(=O)[C@H](CO)NC(=O)[C@H](CC(=O)O)NC(=O)[C@H](CC(C)C)NC(=O)[C@](C)(Cc1ccccc1)NC(=O)[C@H](CCCCN)NC(=O)[C@H](CO)NC(=O)[C@@H](NC(=O)[C@H](CC(=O)O)NC(=O)[C@H](CO)NC(=O)[C@@H](NC(=O)[C@](C)(Cc1ccccc1)NC(=O)[C@H](CO)NC(=O)CNC(=O)[C@H](CCC(N)=O)NC(=O)C(C)(C)NC(=O)[C@@H](N)Cc1c[nH]cn1)[C@@H](C)O)C(C)C)C(=O)N[C@@H](C)C(=O)N[C@@H](C)C(=O)N[C@@H](CCC(N)=O)C(=O)N[C@@H](CC(=O)O)C(=O)N[C@@](C)(Cc1ccccc1)C(=O)N[C@H](C(=O)N[C@@H](CCC(N)=O)C(=O)NC(C)(C)C(=O)N[C@H](C(=O)N[C@@H](C)C(=O)N[C@@H](CC(N)=O)C(N)=O)[C@@H](C)CC)C(C)C)C(=O)O)C(=O)O [Peptide 73] (H-H[Aib]QGS[αMeF]TSDVSK[αMeF]LDSK([PEG2-PEG2-γGlu-γGlu-Palmitoyl])AAQD[αMeF]VQ[Aib]IAN-NH2; N-terminus assumed)	157.9	0.022 nM	63.4%	–	–	–	–
CCCCCCCCCCCCCCCCCC(=O)N[C@@H](CCC(=O)N[C@@H](CCC(=O)NCCOCCOCCC(=O)NCCOCCOCCC(=O)NCCCC[C@H](NC(=O)[C@H](CO)NC(=O)[C@H](CC(=O)O)NC(=O)[C@H](CC(C)C)NC(=O)C(C)(C)NC(=O)[C@H](CCCCN)NC(=O)[C@H](CO)NC(=O)[C@@H](NC(=O)[C@H](CC(=O)O)NC(=O)[C@H](CO)NC(=O)[C@@H](NC(=O)[C@](C)(Cc1ccccc1)NC(=O)[C@H](CO)NC(=O)CNC(=O)[C@H](CCC(N)=O)NC(=O)[C@H](CO)NC(=O)[C@@H](N)Cc1c[nH]cn1)[C@@H](C)O)C(C)C)C(=O)N[C@@H](C)C(=O)N[C@@H](C)C(=O)N[C@@H](CCC(N)=O)C(=O)N[C@@H](CC(=O)O)C(=O)N[C@@](C)(Cc1ccccc1)C(=O)N[C@H](C(=O)N[C@@H](CCC(N)=O)C(=O)NC(C)(C)C(=O)N[C@@H](CC(C)C)C(=O)N[C@@H](CCC(=O)O)C(=O)N[C@@H](C)C(=O)NCC(=O)NCC(N)=O)C(C)C)C(=O)O)C(=O)O [Peptide 96] (H-HSQGS[αMeF]TSDVSK[Aib]LDSK([PEG2-PEG2-γGlu-γGlu-Stearoyl])AAQD[αMeF]VQ[Aib]LEAGG-NH2; N-terminus assumed)	69.9	0.0301 nM	51.9%	–	–	–	–
CCCCCCCCCCCCCCCCCC(=O)N[C@@H](CCC(=O)N[C@@H](CCC(=O)NCCOCCOCCC(=O)NCCOCCOCCC(=O)NCCCC[C@H](NC(=O)[C@H](CO)NC(=O)[C@H](CC(=O)O)NC(=O)[C@H](CC(C)C)NC(=O)C(C)(C)NC(=O)[C@H](CCCCN)NC(=O)[C@H](CO)NC(=O)[C@@H](NC(=O)[C@H](CC(=O)O)NC(=O)[C@H](CO)NC(=O)[C@@H](NC(=O)[C@](C)(Cc1ccccc1)NC(=O)[C@H](CO)NC(=O)CNC(=O)[C@H](CCC(N)=O)NC(=O)C(C)(C)NC(=O)[C@@H](N)Cc1c[nH]cn1)[C@@H](C)O)C(C)C)C(=O)N[C@@H](CCCNC(=N)N)C(=O)N[C@@H](C)C(=O)N[C@@H](CCC(N)=O)C(=O)N[C@@H](CC(=O)O)C(=O)N[C@@](C)(Cc1ccccc1)C(=O)N[C@H](C(=O)N[C@@H](CCC(N)=O)C(=O)NC(C)(C)C(=O)N[C@H](C(=O)N[C@@H](C)C(=O)N[C@@H](CC(N)=O)C(N)=O)[C@@H](C)CC)C(C)C)C(=O)O)C(=O)O [Peptide 102] (H-H[Aib]QGS[αMeF]TSDVSK[Aib]LDSK([PEG2-PEG2-γGlu-γGlu-Stearoyl])RAQD[αMeF]VQ[Aib]IAN-NH2; N-terminus assumed)	227.0	0.0265 nM	81.9%	–	–	–	–
CC[C@H](C)[C@H](NC(=O)[C@H](CO)NC(=O)[C@H](CCC(N)=O)NC(=O)[C@@H](NC(=O)[C@H](Cc1ccccc1)NC(=O)[C@H](CC(=O)O)NC(=O)[C@H](CCCCNC(=O)COCCOCCNC(=O)COCCOCCNC(=O)CC[C@H](NC(=O)CCCCCCCCCCCCCCCCC(=O)O)C(=O)O)NC(=O)[C@H](C)NC(=O)C(C)(C)NC(=O)[C@H](CCCNC(=N)N)NC(=O)[C@H](CO)NC(=O)[C@H](CC(=O)O)NC(=O)[C@H](CC(C)C)NC(=O)[C@](C)(Cc1ccccc1)NC(=O)[C@H](CCCCN)NC(=O)[C@H](CO)NC(=O)[C@@H](NC(=O)[C@H](CC(=O)O)NC(=O)[C@H](CO)NC(=O)[C@@H](NC(=O)[C@](C)(Cc1ccccc1)NC(=O)[C@H](CO)NC(=O)CNC(=O)[C@H](Cc1c[nH]cn1)NC(=O)C(C)(C)NC(=O)[C@@H](N)Cc1c[nH]cn1)[C@@H](C)O)C(C)C)C(C)C)C(=O)N[C@@H](C)C(=O)N[C@@H](CC(N)=O)C(=O)N[C@H](C(N)=O)[C@@H](C)O [Peptide 223] (H-H[Aib]HGS[αMeF]TSDVSK[αMeF]LDSR[Aib]AK([AEEA-AEEA-γGlu-C18 diacid])DFVQSIANT-NH2)	–	–	63.6%	0.0488 nM	4.2	0.104 nM	–
CC[C@H](C)[C@H](NC(=O)[C@H](Cc1c[nH]c2ccccc12)NC(=O)[C@H](CCC(N)=O)NC(=O)[C@@H](NC(=O)[C@](C)(Cc1ccccc1)NC(=O)[C@H](CC(=O)O)NC(=O)[C@H](CCCCNC(=O)COCCOCCNC(=O)COCCOCCNC(=O)CC[C@H](NC(=O)CC[C@H](NC(=O)CCCCCCCCCCCCCCCCC(=O)O)C(=O)O)C(=O)O)NC(=O)[C@H](C)NC(=O)[C@H](C)NC(=O)[C@H](CCCNC(=N)N)NC(=O)[C@H](CO)NC(=O)[C@H](CC(=O)O)NC(=O)[C@H](CC(C)C)NC(=O)[C@](C)(Cc1ccccc1)NC(=O)[C@H](CCCCN)NC(=O)[C@H](CO)NC(=O)[C@@H](NC(=O)[C@H](CC(=O)O)NC(=O)[C@H](CO)NC(=O)[C@@H](NC(=O)[C@](C)(Cc1ccccc1)NC(=O)[C@H](CO)NC(=O)CNC(=O)[C@H](Cc1c[nH]cn1)NC(=O)C(C)(C)NC(=O)[C@@H](N)Cc1c[nH]cn1)[C@@H](C)O)C(C)C)C(C)C)C(=O)N[C@@H](C)C(=O)N[C@@H](CC(N)=O)C(=O)N[C@H](C(N)=O)[C@@H](C)O [Peptide 247] (H-H[Aib]HGS[αMeF]TSDVSK[αMeF]LDSRAAK([AEEA-AEEA-γGlu-γGlu-C18 diacid])D[αMeF]VQWIANT-NH2; N-terminus assumed)	–	–	66.9%	0.0849 nM	1.2	0.0511 nM	–
CCCCCCCCCCCCCCCCCC(=O)N[C@@H](CCC(=O)N[C@@H](CCC(=O)NCCOCCOCC(=O)NCCOCCOCC(=O)NCCCC[C@H](NC(=O)[C@H](C)NC(=O)[C@H](C)NC(=O)[C@H](CCCNC(=N)N)NC(=O)[C@H](CO)NC(=O)[C@H](CC(=O)O)NC(=O)[C@H](CC(C)C)NC(=O)[C@](C)(Cc1ccccc1)NC(=O)[C@H](CCCCN)NC(=O)[C@H](CO)NC(=O)[C@@H](NC(=O)[C@H](CC(=O)O)NC(=O)[C@H](CO)NC(=O)[C@@H](NC(=O)[C@](C)(Cc1ccccc1)NC(=O)[C@H](CO)NC(=O)CNC(=O)[C@H](Cc1c[nH]cn1)NC(=O)C(C)(C)NC(=O)[C@@H](N)Cc1c[nH]cn1)[C@@H](C)O)C(C)C)C(=O)N[C@@H](CC(=O)O)C(=O)N[C@@](C)(Cc1ccccc1)C(=O)N[C@H](C(=O)N[C@@H](CCC(N)=O)C(=O)NC(C)(C)C(=O)N[C@H](C(=O)N[C@@H](C)C(=O)N[C@@H](CC(N)=O)C(=O)N[C@H](C(N)=O)[C@@H](C)O)[C@@H](C)CC)C(C)C)C(=O)O)C(=O)O [Peptide 257] (H-H[Aib]HGS[αMeF]TSDVSK[αMeF]LDSRAAK([AEEA-AEEA-γGlu-γGlu-Stearoyl])D[αMeF]VQ[Aib]IANT-NH2)	–	–	96.5%	0.00735 nM	0.4	0.00166 nM	94.7%
CC[C@H](C)[C@H](NC(=O)C(C)(C)NC(=O)[C@H](CCC(N)=O)NC(=O)[C@@H](NC(=O)[C@](C)(Cc1ccccc1)NC(=O)[C@H](CC(=O)O)NC(=O)[C@H](CCCCNC(=O)COCCOCCNC(=O)COCCOCCNC(=O)CC[C@H](NC(=O)CCCCCCCCCCCCCCCCC(=O)O)C(=O)O)NC(=O)[C@H](C)NC(=O)[C@H](C)NC(=O)[C@H](CCCNC(=N)N)NC(=O)[C@H](CO)NC(=O)[C@H](CC(=O)O)NC(=O)[C@H](CC(C)C)NC(=O)[C@](C)(Cc1ccccc1)NC(=O)[C@H](CCCCN)NC(=O)[C@H](CO)NC(=O)[C@@H](NC(=O)[C@H](CC(=O)O)NC(=O)[C@H](CO)NC(=O)[C@@H](NC(=O)[C@](C)(Cc1ccccc1)NC(=O)[C@H](CO)NC(=O)CNC(=O)[C@H](Cc1c[nH]cn1)NC(=O)C(C)(C)NC(=O)[C@@H](N)Cc1c[nH]cn1)[C@@H](C)O)C(C)C)C(C)C)C(=O)N[C@@H](C)C(=O)N[C@@H](CCC(=O)O)C(=O)N[C@H](C(N)=O)[C@@H](C)O [Peptide 300] (H-H[Aib]HGS[αMeF]TSDVSK[αMeF]LDSRAAK([AEEA-AEEA-γGlu-C18 diacid])D[αMeF]VQ[Aib]IAET-NH2)	–	–	45.2%	0.0197 nM	1.8	0.0184 nM	–
